Assay results as given in US20210292315A1, “SELENIUM-CONTAINING ISOXAZOLAMINE COMPOUND, PREPARATION METHOD THEREFOR, AND USE THEREOF” (SHANGHAI XINGYE PHARMACEUTICAL TECHNOLOGY CO., LTD, priority 2018, published 2021).
Where two headings read alike, the source gives them in different places.

Key:
TNF-α = TNF-α activity inhibiting assay: LPS-stimulated peripheral blood, TNF-α by ELISA; assay type: cell-based, human; conditions: LPS 10 ng/mL, 6 hours, diluted peripheral blood from healthy volunteers, read-out: TNF-α inhibition (%)
Protocol: Methods: Peripheral blood from healthy volunteers was collected with EDTA anticoagulant tubes. After being diluted 5-fold with 1640 medium (Gibco, USA), the blood was added to 96-well cell culture plates (Costar, USA) and then treated with 10 μL solution of the compound of general formula (I) of the present invention in DMSO (Sigma, USA), and the final concentration of DMSO was 0.2%. After incubation for 60 minutes in an incubator at 37° C. under 5% CO2, 10 μL LPS (Sigma, USA) was added to the reaction system, and the final concentration was 10 ng/mL. After further culturing for 6 hours in the incubator at 37° C. under 5% CO2, the supernatant was collected. The content of TNF-α was determined by ELISA (BD Biosciences, USA). Absorbance was detected at OD450 nm with a microplate reader, with GD 650 nm as reference. The control, a solution containing 0.2% DMSO medium, was as 0% inhibition. Raw data and standard curves were recorded. The four-parameter drug inhibition curve was plotted by XL-fit software and the inhibition rate of each compound was calculated.

[1] = Glutathione peroxidase (GPx)-like activity assay, coupled NADPH oxidation at 340 nm; assay type: biochemical; conditions: compound 50 μm, GSH 2.0 mM, pH 7.5, 25° C.; for Initial rate v0, Cum-OOH: peroxide Cum-OOH 1.6 mM; for Initial rate v0, H2O2: peroxide H2O2 1.6 mM; for Initial rate v0, tBuOOH: peroxide tBuOOH 1.6 mM
Protocol: Method: GPX activity of selenium compounds was assayed by ultraviolet spectrophotometry. Glutathione (2.0 mM), EDTA (1 mM), glutathione disulfide reductase (1.7 units mL^−1), and nicotinamide adenine dinucleotide phosphate […] (NADPH; 0.4 mM) were mixed intopotassium phosphate buffer (0.1 M, pH=7.5). The selenium compounds (50 μm) was added to the above mixture At room temperature (25° C.), and the reaction was started by the addition of H2O2, tBuOOH or Cum-OOH (1.6 mM) respectively. The initial reduction rates were calculated from the rate of NADPH oxidation at 340 nm in a GSH assay. Each initial rate was measured at least three times and calculated from the first 5-10% of the reaction by using 6.22 mM^−1 cm^−1 as the molar extinction coefficient for NADPH. For the peroxidase activity, the rates were corrected for the background reaction between peroxide and thiol.

[2] = biological target: T1, Thioredoxin Reductase 1 (TrxR1) (Homo sapiens, UniProt Q16881); assay: Thioredoxin reductase 1 (TrxR1) activity inhibiting assay, NADPH consumption at 340 nm; assay type: biochemical; conditions: insulin/Trx/NADPH system, absorbance 340 nm; read-out: TrxR inhibition IC50
T1 sequence (Q16881 151-649 limits assumed): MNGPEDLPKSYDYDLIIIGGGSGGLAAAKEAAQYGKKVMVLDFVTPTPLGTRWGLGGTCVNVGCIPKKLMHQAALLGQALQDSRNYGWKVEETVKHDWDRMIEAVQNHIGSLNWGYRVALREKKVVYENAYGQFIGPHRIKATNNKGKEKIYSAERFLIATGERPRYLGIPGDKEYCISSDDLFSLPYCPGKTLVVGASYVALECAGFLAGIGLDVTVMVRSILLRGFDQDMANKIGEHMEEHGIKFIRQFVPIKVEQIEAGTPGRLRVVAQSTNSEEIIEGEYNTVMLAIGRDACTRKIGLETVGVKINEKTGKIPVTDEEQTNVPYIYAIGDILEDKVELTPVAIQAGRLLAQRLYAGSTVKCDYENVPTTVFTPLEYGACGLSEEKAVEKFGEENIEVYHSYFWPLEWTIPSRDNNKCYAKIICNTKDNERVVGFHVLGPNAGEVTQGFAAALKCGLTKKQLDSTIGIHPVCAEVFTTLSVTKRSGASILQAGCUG
Protocol: Working solutions: 0.119 mg/mL of TrxR working solution preparation: 175 μL of TrxR stock solution (0.34 mg/mL) was diluted to 500 μL; 1 mM NADPH working solution preparation, NADPH (5 mg) was dissolved in 12 mL potassium phosphate buffer; 1 mM DTNB working solution preparation: 25 mg DTNB was dissolve in 63 mL DMSO; potassium phosphate buffer system preparation: 0.2 mg/mL bovine serum albumin (BSA) and 1 mM EDTA were added to potassium phosphate buffer at pH 7.4 (K2HPO4/KH2PO4).
Methods: The TrxR1 inhibitory activity study of selenium-containing isoxazolamines in vitro. Insulin, NADPH, Trx, the samples and TrxR1 were added to a microcuvette in order, and subsequently added the work buffer (0.1 mol/L potassium phosphate/2 mmol/L EDTA) to a total volume of 0.5 mL. The concentration of each component in the obtained reaction system is: insulin 130 μmol/L, NADPH […] (Sigma), Trx 4 μmol/L, the added substrate (the selenium-containing isoxazolamines treated samples). After determination of the initial absorption at 340 nm, the enzymatic reaction was started by adding 20 μg extracted TrxR1 proteins, the decrease in absorbance at 340 nm was monitored. One unit of enzymatic activity is defined as the consumption. The activity can be calculated from the extinction coefficient of NADPH, and the unit of enzyme activity is defined as: 1U=ΔA340 nm/min×1000, the TR activity could be calculated with U/L. The results are shown in table 2.

For `O=C1CCC(n2[se]c3ccccc3c2=O)C(=O)N1` (stereo not drawn) [Compound 1], the IC50 (TNF-α; Homo sapiens) was 10 to 100 µM, the “Initial rate v0, Cum-OOH” value [1] was 124.5 ± 7.6 μm min^−1 and the “Initial rate v0, H2O2” value [1] was 109.7 ± 2.1 μm min^−1. For the same molecule, the “Initial rate v0, tBuOOH” value [1] was 42.0 ± 3.3 μm min^−1 and the IC50 [2] was 5 to 50 µM.
Work on `O=C1CCC(n2[se]c3cccc([N+](=O)[O-])c3c2=O)C(=O)N1` (stereo not drawn) [Compound 2] yielded an IC50 (TNF-α; Homo sapiens) of 1 to 10 µM and an IC50 [2] of 5 to 50 µM.
For `Nc1cccc2[se]n(C3CCC(=O)NC3=O)c(=O)c12` (stereo not drawn) [Compound 3], the IC50 (TNF-α; Homo sapiens) was under 1 µM.
`O=C1CCC(n2[se]c3ccc(F)cc3c2=O)C(=O)N1` (stereo not drawn) [Compound 4] showed an IC50 (TNF-α; Homo sapiens) of 10 to 100 µM and an IC50 [2] of under 5 µM.
With `O=C1CCC(n2[se]c3c([N+](=O)[O-])cccc3c2=O)C(=O)N1` (stereo not drawn) [Compound 5] the IC50 (TNF-α; Homo sapiens) was 1 to 10 µM and the IC50 [2] was 50 to 100 µM.
`Nc1cccc2c(=O)n(C3CCC(=O)NC3=O)[se]c12` (stereo not drawn) [Compound 6] showed an IC50 (TNF-α) of under 1 µM.
In the case of `O=C1CCC(n2[se]c3cc(F)ccc3c2=O)C(=O)N1` (stereo not drawn) [Compound 7], the IC50 (TNF-α; Homo sapiens) is reported as 10 to 100 µM, the “Initial rate v0, Cum-OOH” value [1] is reported as 142.2 ± 8.2 μm min^−1 and the “Initial rate v0, H2O2” value [1] is reported as 128.2 ± 2.0 μm min^−1. For the same molecule, the “Initial rate v0, tBuOOH” value [1] was 49.3 ± 5.0 μm min^−1 and the IC50 [2] was under 5 µM.
Work on `O=C1CCC(n2[se]c3cc(Cl)ccc3c2=O)C(=O)N1` (stereo not drawn) [Compound 8] yielded an IC50 (TNF-α; Homo sapiens) of 10 to 100 µM and an IC50 [2] of 5 to 50 µM.
With `CC(=O)Nc1cccc2c(=O)n(C3CCC(=O)NC3=O)[se]c12` (stereo not drawn) [Compound 9] the IC50 (TNF-α; Homo sapiens) was 10 to 100 µM and the IC50 [2] was 5 to 50 µM.
With `O=C1CCC(n2[se]c3c(F)cccc3c2=O)C(=O)N1` (stereo not drawn) [Compound 10] the IC50 (TNF-α; Homo sapiens) was 1 to 10 µM and the IC50 [2] was under 5 µM.
Work on `COc1cccc2c(=O)n(C3CCC(=O)NC3=O)[se]c12` (stereo not drawn) [Compound 11] yielded an IC50 (TNF-α) of 1 to 10 µM.
For `COc1ccc2[se]n(C3CCC(=O)NC3=O)c(=O)c2c1` (stereo not drawn) [Compound 12], the IC50 (TNF-α; Homo sapiens) was 1 to 10 µM, the “Initial rate v0, Cum-OOH” value [1] was 116.8 ± 7.2 μm min^−1 and the “Initial rate v0, H2O2” value [1] was 121.7 ± 2.2 μm min^−1. For the same molecule, the “Initial rate v0, tBuOOH” value [1] was 54.5 ± 5.7 μm min^−1 and the IC50 [2] was under 5 µM.
For `COc1cc2[se]n(C3CCC(=O)NC3=O)c(=O)c2cc1OC` (stereo not drawn) [Compound 13], the IC50 (TNF-α; Homo sapiens) was 1 to 10 µM and the IC50 [2] was under 5 µM.
Work on `COc1cc2c(=O)n(C3CCC(=O)NC3=O)[se]c2c(OC)c1OC` (stereo not drawn) [Compound 14] yielded an IC50 (TNF-α) of under 1 µM.
With `Cc1cccc2c(=O)n(C3CCC(=O)NC3=O)[se]c12` (stereo not drawn) [Compound 15] the IC50 (TNF-α) was under 1 µM.
For `N#Cc1cccc2c(=O)n(C3CCC(=O)NC3=O)[se]c12` (stereo not drawn) [Compound 16], the IC50 (TNF-α; Homo sapiens) was 1 to 10 µM and the IC50 [2] was 5 to 50 µM.
Work on `CC1(C)S[C@@H]2[C@H](n3[se]c4ccccc4c3=O)C(=O)N2[C@H]1C(=O)O` [Compound 17] yielded an IC50 (TNF-α; Homo sapiens) of over 100 µM and an IC50 [2] of under 5 µM.
For `CC1(C)S[C@@H]2[C@H](n3[se]c4ccc(F)cc4c3=O)C(=O)N2[C@H]1C(=O)O` [Compound 18], the IC50 (TNF-α) was over 100 µM.
In the case of `O=c1c2ccccc2[se]n1C12CC3CC(CC(O)(C3)C1)C2` [Compound 19], the IC50 (TNF-α) is reported as 10 to 100 µM, the “Initial rate v0, Cum-OOH” value [1] is reported as 34.2 ± 1.5 μm min^−1 and the “Initial rate v0, H2O2” value [1] is reported as 99.7 ± 1.9 μm min^−1. For the same molecule, the “Initial rate v0, tBuOOH” value [1] was 32.3 ± 3.5 μm min^−1.
In the case of `O=c1c2cc(F)ccc2[se]n1C12CC3CC(CC(O)(C3)C1)C2` [Compound 20], the IC50 (TNF-α) is reported as 10 to 100 µM.
With `O=c1c2ccccc2[se]n1-c1nc2ccccc2s1` [Compound 21] the IC50 (TNF-α; Homo sapiens) was 10 to 100 µM, the “Initial rate v0, Cum-OOH” value [1] was 94.5 ± 4.2 μm min^−1 and the “Initial rate v0, H2O2” value [1] was 115.3 ± 2.6 μm min^−1. The “Initial rate v0, tBuOOH” value [1] was 35.7 ± 4.2 μm min^−1 and the IC50 [2] was 5 to 50 µM.
In the case of `O=c1c2ccccc2[se]n1-c1nc2ccc(OC(F)(F)F)cc2s1` [Compound 22], the IC50 (TNF-α; Homo sapiens) is reported as 1 to 10 µM and the IC50 [2] is reported as under 5 µM.
